# According to ChEMBL document CHEMBL1201862, “PubChem BioAssay data set” (2004):
# Active and inactive are the calls of the source.
# What was measured:
# [1] = A Cell Based Secondary Assay To Explore Cytotoxicity of Compounds that Sensitize Mycobacterium Tuberculosis to Beta-Lactam Antibiotics.; assay type: functional
# [2] = target: T1, Voltage-gated N-type calcium channel alpha-1B subunit/Amyloid beta A4 precursor protein-binding family A member 1 (Homo sapiens, UniProt Q00975+Q02410); assay type: protein assay
# NS3 = NS3 (Hepatitis C virus, UniProt A3EZJ3); assay: PubChem AID 2173; set-up: species or system Hepacivirus hominis
# [3] = target: T1, Voltage-gated N-type calcium channel alpha-1B subunit/Amyloid beta A4 precursor protein-binding family A member 1; assay type: protein assay; remark: listed apart in the source
# [4] = target: Induced myeloid leukemia cell differentiation protein Mcl-1 (Homo sapiens, UniProt Q07820); assay type: functional
# Cytochrome P450 2C19 = Cytochrome P450 2C19 (Homo sapiens, UniProt P33261); assay: Cytochrome panel assay with activity outcomes. Panel member name: p450-cyp2c19 Compounds with AC50 equal or less than 10 uM are considered active; assay type: functional; details: read-out: AC50
# [5] = target: 26S proteasome non-ATPase regulatory subunit 14 (Homo sapiens, UniProt O00487); assay: inhibition of proteasome subunit RPN11 – biochemical, fluorescence polarization, uHTS hits, confirmation (AID 602368); assay type: functional
# [6] = target: 72 kDa type IV collagenase (Homo sapiens, UniProt P08253); assay: Dose Response validation of uHTS RPN11 inhibitor hits using a MMP-2 Fluorescence assay.; assay type: functional
# Prothrombin = Prothrombin (Bos taurus, UniProt P00735); assay: thrombin protease inhibitors – biochemical, fluorescence polarization, uHTS hits, dose response (AID 602369); assay type: functional
# Cytochrome P450 3A4 = Cytochrome P450 3A4 (Homo sapiens, UniProt P08684);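 further: CYP3A4 tested as one member of a cytochrome P450 panel screen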
# [7] = HPDE-C7 pancreatic duct cell viability loss – fluorescence, HTS (AID 430); assay type: functional, cell-based; details: Homo sapiens
# [8] = viability loss of HPDE-C7K cells – cell-based, fluorescence, HTS, primary screen (AID 431); assay type: functional; details: Homo sapiens
# Vero [9] = assay: viability of Vero cells under compound – cytotoxicity control for flavivirus capping enzyme inhibitors (AID 588742); assay type: functional; details: Chlorocebus sabaeus
# INS1 = assay: INS-1E survival protection against cytokine death – cell-based, luminescence, retest, dose response (AID 449756); assay type: functional; details: Rattus norvegicus;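 further: cell death triggered by IL-1 beta plus TNF-alpha plus IFN-gamma mixture; protective hits raise ATP signal compared with cytokine alone wells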
# Vero [10] = assay: cells; assay type: functional; details: Chlorocebus sabaeus
# CAAX prenyl protease 2 = target: T2, CAAX prenyl protease 2 (Saccharomyces cerevisiae S288c, UniProt Q03530); assay type: biochemical
# T2 sequence (Q03530 whole entry): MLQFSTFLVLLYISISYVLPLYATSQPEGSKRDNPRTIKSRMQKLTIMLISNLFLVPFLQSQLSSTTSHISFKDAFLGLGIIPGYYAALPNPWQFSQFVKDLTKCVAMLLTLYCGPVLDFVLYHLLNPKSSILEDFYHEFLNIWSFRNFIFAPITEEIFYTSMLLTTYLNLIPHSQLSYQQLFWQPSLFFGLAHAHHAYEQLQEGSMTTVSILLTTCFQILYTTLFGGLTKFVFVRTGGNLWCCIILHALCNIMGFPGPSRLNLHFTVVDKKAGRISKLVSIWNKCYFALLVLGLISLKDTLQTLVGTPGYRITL
# NS3, sequence (A3EZJ3 whole entry): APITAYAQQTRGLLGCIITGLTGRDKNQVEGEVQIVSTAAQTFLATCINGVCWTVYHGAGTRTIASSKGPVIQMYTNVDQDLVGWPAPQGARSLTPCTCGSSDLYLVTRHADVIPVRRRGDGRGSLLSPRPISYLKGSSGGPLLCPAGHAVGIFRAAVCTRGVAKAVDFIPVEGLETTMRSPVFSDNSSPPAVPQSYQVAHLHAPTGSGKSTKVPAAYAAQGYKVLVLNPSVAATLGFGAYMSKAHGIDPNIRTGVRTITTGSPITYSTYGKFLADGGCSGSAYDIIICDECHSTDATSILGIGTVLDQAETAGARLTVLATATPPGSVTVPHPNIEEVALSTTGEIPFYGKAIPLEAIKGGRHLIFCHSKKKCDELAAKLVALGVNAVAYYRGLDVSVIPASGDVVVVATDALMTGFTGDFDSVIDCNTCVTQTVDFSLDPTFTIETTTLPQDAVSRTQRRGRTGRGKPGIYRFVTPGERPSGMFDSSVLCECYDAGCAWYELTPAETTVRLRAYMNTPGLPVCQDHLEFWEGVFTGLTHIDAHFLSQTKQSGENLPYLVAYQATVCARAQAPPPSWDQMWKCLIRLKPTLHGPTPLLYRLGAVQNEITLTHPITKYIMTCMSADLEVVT
# T1 sequence (Q00975 whole entry): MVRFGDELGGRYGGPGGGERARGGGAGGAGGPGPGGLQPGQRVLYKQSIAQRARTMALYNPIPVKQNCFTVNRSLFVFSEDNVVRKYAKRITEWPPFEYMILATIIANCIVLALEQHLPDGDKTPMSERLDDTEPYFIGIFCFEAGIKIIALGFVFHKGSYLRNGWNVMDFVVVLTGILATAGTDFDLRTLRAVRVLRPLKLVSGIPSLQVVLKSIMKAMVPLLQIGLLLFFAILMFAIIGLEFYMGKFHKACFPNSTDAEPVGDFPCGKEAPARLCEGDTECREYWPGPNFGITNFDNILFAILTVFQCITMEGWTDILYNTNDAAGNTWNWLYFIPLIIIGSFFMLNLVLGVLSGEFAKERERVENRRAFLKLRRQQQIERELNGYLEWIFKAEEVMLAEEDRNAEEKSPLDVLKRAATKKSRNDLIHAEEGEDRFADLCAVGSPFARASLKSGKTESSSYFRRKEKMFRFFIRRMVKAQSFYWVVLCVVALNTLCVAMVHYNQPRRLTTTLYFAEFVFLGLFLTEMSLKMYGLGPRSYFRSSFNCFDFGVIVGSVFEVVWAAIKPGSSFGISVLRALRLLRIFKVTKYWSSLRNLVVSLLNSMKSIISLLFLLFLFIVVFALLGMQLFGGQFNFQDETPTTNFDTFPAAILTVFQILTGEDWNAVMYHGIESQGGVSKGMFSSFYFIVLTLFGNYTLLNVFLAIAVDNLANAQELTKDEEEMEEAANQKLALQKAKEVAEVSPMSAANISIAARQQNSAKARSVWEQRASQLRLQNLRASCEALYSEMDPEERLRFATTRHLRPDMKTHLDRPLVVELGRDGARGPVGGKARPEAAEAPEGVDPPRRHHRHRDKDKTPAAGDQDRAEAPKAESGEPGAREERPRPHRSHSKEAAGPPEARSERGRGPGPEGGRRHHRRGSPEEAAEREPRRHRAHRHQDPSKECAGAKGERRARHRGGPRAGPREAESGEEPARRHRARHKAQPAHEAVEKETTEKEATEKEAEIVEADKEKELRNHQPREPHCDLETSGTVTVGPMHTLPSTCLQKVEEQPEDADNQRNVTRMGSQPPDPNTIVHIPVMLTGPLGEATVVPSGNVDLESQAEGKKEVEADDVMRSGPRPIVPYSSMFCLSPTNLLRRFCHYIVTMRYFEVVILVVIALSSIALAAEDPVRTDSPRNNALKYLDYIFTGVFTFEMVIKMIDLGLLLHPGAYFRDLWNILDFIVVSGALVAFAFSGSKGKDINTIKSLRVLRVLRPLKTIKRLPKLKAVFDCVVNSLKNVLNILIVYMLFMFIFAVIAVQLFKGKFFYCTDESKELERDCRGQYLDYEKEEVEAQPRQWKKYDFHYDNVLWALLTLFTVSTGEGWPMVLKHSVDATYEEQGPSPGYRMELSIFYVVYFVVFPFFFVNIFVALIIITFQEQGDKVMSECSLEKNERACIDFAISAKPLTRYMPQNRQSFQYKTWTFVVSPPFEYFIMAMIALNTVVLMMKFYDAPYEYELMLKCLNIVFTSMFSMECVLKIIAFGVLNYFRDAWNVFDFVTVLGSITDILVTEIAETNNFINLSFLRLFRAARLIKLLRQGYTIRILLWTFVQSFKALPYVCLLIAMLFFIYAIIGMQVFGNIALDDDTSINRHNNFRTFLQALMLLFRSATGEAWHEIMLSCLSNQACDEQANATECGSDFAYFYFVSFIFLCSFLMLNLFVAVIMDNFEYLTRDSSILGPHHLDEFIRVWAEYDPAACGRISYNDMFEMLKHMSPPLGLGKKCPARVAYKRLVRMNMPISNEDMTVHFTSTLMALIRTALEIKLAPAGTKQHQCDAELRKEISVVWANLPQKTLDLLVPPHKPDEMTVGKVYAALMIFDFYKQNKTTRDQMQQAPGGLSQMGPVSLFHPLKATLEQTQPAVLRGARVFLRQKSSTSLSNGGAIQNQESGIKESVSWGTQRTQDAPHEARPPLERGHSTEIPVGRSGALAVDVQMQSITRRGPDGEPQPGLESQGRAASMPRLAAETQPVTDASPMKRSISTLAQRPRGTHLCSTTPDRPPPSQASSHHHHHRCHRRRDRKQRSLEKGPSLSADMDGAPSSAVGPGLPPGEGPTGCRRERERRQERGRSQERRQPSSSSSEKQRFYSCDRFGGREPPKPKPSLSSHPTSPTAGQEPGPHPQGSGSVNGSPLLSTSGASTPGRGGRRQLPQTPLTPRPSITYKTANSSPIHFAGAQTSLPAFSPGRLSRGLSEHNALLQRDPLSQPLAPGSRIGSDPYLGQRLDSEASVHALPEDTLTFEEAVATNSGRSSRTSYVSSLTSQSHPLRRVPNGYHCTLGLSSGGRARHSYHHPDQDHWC
# T1 sequence (Q02410 whole entry): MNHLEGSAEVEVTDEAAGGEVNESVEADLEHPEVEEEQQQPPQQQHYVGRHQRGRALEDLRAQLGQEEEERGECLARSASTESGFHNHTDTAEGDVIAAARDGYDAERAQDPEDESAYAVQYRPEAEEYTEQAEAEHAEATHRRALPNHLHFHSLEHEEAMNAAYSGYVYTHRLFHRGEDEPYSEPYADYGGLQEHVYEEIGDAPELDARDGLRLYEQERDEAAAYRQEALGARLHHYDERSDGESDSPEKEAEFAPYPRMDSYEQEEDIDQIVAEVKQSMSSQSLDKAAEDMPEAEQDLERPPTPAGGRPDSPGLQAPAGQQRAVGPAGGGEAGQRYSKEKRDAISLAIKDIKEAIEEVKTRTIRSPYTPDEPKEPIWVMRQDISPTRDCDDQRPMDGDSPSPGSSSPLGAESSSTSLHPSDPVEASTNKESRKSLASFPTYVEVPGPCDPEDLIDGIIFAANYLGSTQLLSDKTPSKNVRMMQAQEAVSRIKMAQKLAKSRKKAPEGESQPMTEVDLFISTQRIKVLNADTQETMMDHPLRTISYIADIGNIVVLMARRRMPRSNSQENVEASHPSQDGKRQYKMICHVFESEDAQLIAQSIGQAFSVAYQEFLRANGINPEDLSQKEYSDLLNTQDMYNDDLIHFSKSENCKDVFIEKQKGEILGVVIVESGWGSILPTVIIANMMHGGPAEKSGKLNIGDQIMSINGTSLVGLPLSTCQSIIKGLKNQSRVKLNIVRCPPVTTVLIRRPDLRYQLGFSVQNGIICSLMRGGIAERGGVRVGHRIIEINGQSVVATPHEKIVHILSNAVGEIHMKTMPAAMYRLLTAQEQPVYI
# Induced myeloid leukemia cell differentiation protein Mcl-1, sequence (Q07820 whole entry): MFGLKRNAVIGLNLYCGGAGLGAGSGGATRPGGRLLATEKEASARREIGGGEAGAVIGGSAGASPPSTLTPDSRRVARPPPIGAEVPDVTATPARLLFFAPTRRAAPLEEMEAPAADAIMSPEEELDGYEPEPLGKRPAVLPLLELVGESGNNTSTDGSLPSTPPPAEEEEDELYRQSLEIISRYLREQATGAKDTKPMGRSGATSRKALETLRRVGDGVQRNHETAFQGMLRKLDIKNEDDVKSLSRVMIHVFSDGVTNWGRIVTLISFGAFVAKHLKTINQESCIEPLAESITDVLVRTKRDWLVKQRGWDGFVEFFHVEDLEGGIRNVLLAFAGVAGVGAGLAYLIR
# 26S proteasome non-ATPase regulatory subunit 14, sequence (O00487 whole entry): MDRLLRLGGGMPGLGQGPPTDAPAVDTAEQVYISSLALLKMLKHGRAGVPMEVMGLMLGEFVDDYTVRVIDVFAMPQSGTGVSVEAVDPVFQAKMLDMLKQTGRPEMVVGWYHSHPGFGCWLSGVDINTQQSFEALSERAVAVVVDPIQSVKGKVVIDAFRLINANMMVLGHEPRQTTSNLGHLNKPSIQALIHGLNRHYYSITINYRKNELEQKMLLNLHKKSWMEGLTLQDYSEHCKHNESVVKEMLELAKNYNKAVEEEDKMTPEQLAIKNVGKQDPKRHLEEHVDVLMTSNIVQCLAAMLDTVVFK
# Cytochrome P450 3A4, sequence (P08684 whole entry): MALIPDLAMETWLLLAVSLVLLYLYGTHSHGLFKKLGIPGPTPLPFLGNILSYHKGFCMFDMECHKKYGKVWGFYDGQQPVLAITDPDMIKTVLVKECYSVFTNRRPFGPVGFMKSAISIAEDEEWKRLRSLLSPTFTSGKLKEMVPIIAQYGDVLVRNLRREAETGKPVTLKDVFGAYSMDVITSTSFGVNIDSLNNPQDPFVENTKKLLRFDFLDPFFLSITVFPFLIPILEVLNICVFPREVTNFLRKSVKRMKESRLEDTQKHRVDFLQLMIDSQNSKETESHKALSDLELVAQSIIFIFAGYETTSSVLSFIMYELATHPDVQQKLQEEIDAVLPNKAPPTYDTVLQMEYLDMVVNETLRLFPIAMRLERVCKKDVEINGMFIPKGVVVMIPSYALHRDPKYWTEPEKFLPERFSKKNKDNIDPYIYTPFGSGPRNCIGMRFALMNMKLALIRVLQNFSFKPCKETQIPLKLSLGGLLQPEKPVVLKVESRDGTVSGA
structure (smiles),measurement,setting,value
Cc1cc(C(=O)CN2C(=O)NC(c3ccccc3)(c3ccccc3)C2=O)c(C)n1Cc1ccccc1,CC50,[1],> 40 µM (active)
COc1cc2cc3c(N)c(C(=O)Nc4sc(C)c(C)c4C#N)sc3nc2cc1OC,IC50,[2],11.8 µM (active)
same,IC50,NS3,> 36.3 µM (not active)
same,IC50,[3],> 50 µM (inactive)
same,IC50,[4],1.26 µM (active)
same,AC50,Cytochrome P450 2C19,15.8 µM (inconclusive)
same,IC50,[5],48.3 µM (active)
same,IC50,[6],8.14 µM (active)
same,IC50,Prothrombin,25.8 µM (active)
same,AC50,Cytochrome P450 3A4,8.91 µM (inconclusive)
O=C(CCC(=O)N1CCN(C2CCCC2)CC1)Nc1nnc(C(F)(F)F)s1,EC50,[7],> 20 µM (not active)
same,EC50,[8],> 20 µM (not active)
COc1ccccc1NC(=O)c1cc2cc(Br)ccc2cc1O,IC50,NS3,> 4.03 µM (active)
same,IC50,[4],2.63 µM (active)
same,CC50,Vero [9],4.04 µM (active)
same,AC50,INS1,6.21 µM (active)
same,CC50,Vero [10],2.72 µM (active)
CCCCOc1ccc(-c2cc(C(F)(F)F)c(C#N)c(SCC(=O)O)n2)cc1,IC50,NS3,1.98 µM (active)
same,AC50,CAAX prenyl protease 2,25.4 µM (active)
COc1cc2nc(N3CCN(C(=O)OCc4ccccc4)[C@H](C(=O)NC(C)(C)C)C3)nc(N)c2cc1OC,CC50,[1],29.3 µM (active)
